According to article PMC12250347, “Calcium-dependent pathway as a primary cause of hypoxic RGC damage in monkey retinal explants” (PLOS One, 2025):
Entries after “also recorded” stand apart in the source; their conditions may differ.

Legend:
[1] = tested on: RGCs in monkey retinal explants; test: PI staining and RGC counting in retinal explants under hypoxia/reoxygenation; assay type: cell-based, rhesus macaques (Macaca mulatta)
Excerpt: Globes were obtained from rhesus macaques (Macaca mulatta) at 1–7 years of age from the Oregon National Primate Research Center (Beaverton, OR, USA). The wide range of ages was unavoidable because they became available from experiments that were unrelated to the present studies. These eyes were acceptable for the purpose of our experiments. The eyes were dissected within 5 hr after death, and excised eyes were soaked in cold Hanks’ balanced salt solution (HBSS; Corning, NY, USA) or Dulbecco’s phosphate-buffered saline (DPBS; Corning). Experimental animals were handled in accordance with the Research in Vision and Ophthalmology Statement for the Use of Animals in Ophthalmic and Vision Research and with the Guiding Principles in the Care and Use of Animals (Department of Health Education and Welfare Publication National Institutes of Health 80−23).
(§1) Retina explant culture was performed as described in our previous report, except for the induction of hypoxia. Briefly, a hypoxic chamber (Coy Laboratory Products, Grass Lake, MI, USA) was controlled at 0.3% oxygen with a 95% N2/5% CO2 gas mixture. Retinas were dissected into fan-shaped explants with 6 or 7 petals (> 5 mm) in HBSS. Each explant was placed with the RGC side facing up on a Millicell organotypic standing insert (0.4 μm, 30 mm diameter, MilliporeSigma) in six-well, culture plates. They were cultured for 2 hr at 37°C under 95% N2/5% CO2 in Neurobasal-A medium supplemented with B27, N2 supplements, 2 mM L-glutamine (Thermo Fisher Scientific, Waltham, MA, USA), and 100 μg/mL primocin (Invivogen, San Diego, CA, USA). Retinal explants were then chamber-cultured under hypoxic conditions for 16 hr in a culture medium with 0.5 mM glucose, under 0.3% oxygen. The retinas were then re-oxygenated for 8 hr in a culture medium with 5.5 mM glucose. Normoxic control retinas were cultured for 24 hr in a culture medium with 5.5 mM glucose. When present, calpain inhibitors (SNJ-1945, PD-151746, C2I, and ABT-957) and cathepsin inhibitors (Odanacatib and SID26681509) in 0.1% DMSO were used at the final concentration of 10 or 100 μM in the medium. BAPTA (Thermo Fisher Scientific) and BAPTA-AM (Thermo Fisher Scientific) were also used at a final concentration of 3 or 10 mM or a final concentration of 100 or 500 μM, respectively.
(§2) All inhibitors and BAPTA were treated simultaneously with hypoxia induction, and BAPTA-AM treatment was 2 hr before hypoxia induction.
To assess the disruption of membrane barrier function, propidium iodide (PI) was utilized. Following hypoxia/reoxygenation treatment, retinal explants were incubated for 20 min in a medium containing a final concentration of 2 μg/ml of PI. For quantitative analysis, the RGC marker, RNA-binding protein with multiple splicing (RBPMS) was used at a 1:100 dilution (PhosphoSolutions, Aurora, CO, USA). RBPMS-positive and PI-positive cells in the ganglion cell layer were counted in 2 images from 2 square areas (775 × 775 μm each) located 3–5 mm and 5–7 mm away from the tips of the fan-shaped retinal flat mounts. The percentage of PI-positive RGCs was calculated as [the number of PI and RBPMS-double positive cells/the number of all RBPMS-positive cells] × 100.

[2] = tested on: calpain 1 activation and proteolysis of α-spectrin; test: Immunoblotting of retinal explants under hypoxia/reoxygenation; assay type: cell-based, rhesus macaques (Macaca mulatta); details: H16R8
Description: as §1, §2
Each retinal explant was sonicated in RIPA Lysis and Extraction Buffer (Thermo Fisher Scientific), with protease inhibitors cocktail (Complete Mini-EDTA-free; MilliporeSigma). Protein concentrations in lysates were measured by BCA assay (Pierce BCA Protein Assay Kit, Thermo Fisher Scientific) using bovine serum albumin as a standard. For immunoblotting, 5 μg of each sample was loaded and run on 4% to 12% gradient or 10% SDS-PAGE gels (NuPAGE Bis-Tris Protein Gels, Thermo Fisher Scientific) with 2-(N-morpholino)ethanesulfonic acid buffer or 3-(N-morpholino) propanesulfonic acid buffer (Thermo Fisher Scientific). Proteins were then electrotransferred to a polyvinylidene fluoride membrane (MilliporeSigma) at 100 V for 60 min or 1.5 hr. Membranes were then blocked with 5% skim milk in Tris-buffer saline (Bio-Rad Laboratories, Hercules, CA, USA) containing 0.05% Tween 20. Each membrane was probed with primary antibodies against α-spectrin (1:2000 dilution, Enzo Life Sciences, Farmingdale, NY, USA), SBDP150 (1:1000 dilution, Senju Pharmaceutical), calpain 1 (1:1000 dilution, Thermo Fisher Scientific), calpain 2 (1:500, GeneTex, Irvine, CA, USA), cathepsin K (1:500 dilution, Abcam), and β-actin (1:1000 dilution, Merck). For calpain 1, immunoreactivity was visualized using a secondary antibody conjugated to alkaline phosphatase and the AP Conjugate Substrate Kit (Bio-Rad Laboratories). For other proteins, immunoreactivities were visualized using secondary antibodies conjugated with rabbit (Santa Cruz Biotechnology) or mouse horseradish peroxidase enzyme (Cytiva, Wilmington, DE, USA) and ECL Plus detection reagents (Cytiva). Images of the membranes were captured with FluorChem FC2 imager (Cell Biosciences, Santa Clara, CA, USA). The conversion of pro-cathepsin K (38 kDa) to its mature form (27 kDa) was used as an indicator of cathepsin K activation.

[3] = 16 hr hypoxia/8 hr reoxygenation (H16R8), cathepsin inhibitor at 10 or 100 µM
[4] = cathepsin inhibitor at 10 or 100 µM

SMILES: CCc1ccccc1NC(=O)CSC(=O)NNC(=O)[C@H](Cc1c[nH]c2ccccc12)NC(=O)OC(C)(C)C [SID26681509]
- Effect on percentage of PI-positive RGCs [1, 3]: did not reduce
- Effect on activation of calpain 1 and proteolysis of α-spectrin (immunoblot) [2, 4]: did not mitigate

SMILES: CC(C)(F)C[C@H](N[C@@H](c1ccc(-c2ccc(S(C)(=O)=O)cc2)cc1)C(F)(F)F)C(=O)NC1(C#N)CC1 [Odanacatib]
- Effect on percentage of PI-positive RGCs [1, 3]: did not reduce
- Effect on activation of calpain 1 and proteolysis of α-spectrin (immunoblot) [2, 4]: did not mitigate

SMILES: COCCOCCOC(=O)N[C@@H](CC(C)C)C(=O)N[C@@H](Cc1ccccc1)C(=O)C(=O)NC1CC1 [SNJ-1945]
- Effect on percentage of PI-positive RGCs ([1]; H16R8, calpain inhibitor at 100 µM): significantly decreased; also recorded: demonstrated efficacy in reducing PI-positive RGCs
- Effect on activation of calpain 1 and proteolysis of α-spectrin (immunoblot) ([2]; calpain inhibitors (SNJ-1945 100 µM)): effectively ameliorated; also recorded: inhibited the autolytic activation of calpain 1; also recorded: nearly completely inhibited calpain-induced proteolysis
